According to BindingDB's records for patent US10485800 (The University of Rochester, 2019):

Biological target: Mitogen-activated protein kinase kinase kinase 11 (Homo sapiens, UniProt Q16584)
Assay: Radiometric Filter Plate MLK3 Assay
Protocol: 200 ng (130 nM) MLK3 (Dundee, DU8313) was incubated with 1 μM inactive MKK7b (Dundee, DU703) in the presence of 2 μM cold ATP (Km) and 0.5 μCi/assay 33P ATP and appropriate concentrations of compounds. After a twenty minute incubation, the reactions were washed through filter plates and read on a scintillation counter.

Chain of Mitogen-activated protein kinase kinase kinase 11 (Q16584 whole entry): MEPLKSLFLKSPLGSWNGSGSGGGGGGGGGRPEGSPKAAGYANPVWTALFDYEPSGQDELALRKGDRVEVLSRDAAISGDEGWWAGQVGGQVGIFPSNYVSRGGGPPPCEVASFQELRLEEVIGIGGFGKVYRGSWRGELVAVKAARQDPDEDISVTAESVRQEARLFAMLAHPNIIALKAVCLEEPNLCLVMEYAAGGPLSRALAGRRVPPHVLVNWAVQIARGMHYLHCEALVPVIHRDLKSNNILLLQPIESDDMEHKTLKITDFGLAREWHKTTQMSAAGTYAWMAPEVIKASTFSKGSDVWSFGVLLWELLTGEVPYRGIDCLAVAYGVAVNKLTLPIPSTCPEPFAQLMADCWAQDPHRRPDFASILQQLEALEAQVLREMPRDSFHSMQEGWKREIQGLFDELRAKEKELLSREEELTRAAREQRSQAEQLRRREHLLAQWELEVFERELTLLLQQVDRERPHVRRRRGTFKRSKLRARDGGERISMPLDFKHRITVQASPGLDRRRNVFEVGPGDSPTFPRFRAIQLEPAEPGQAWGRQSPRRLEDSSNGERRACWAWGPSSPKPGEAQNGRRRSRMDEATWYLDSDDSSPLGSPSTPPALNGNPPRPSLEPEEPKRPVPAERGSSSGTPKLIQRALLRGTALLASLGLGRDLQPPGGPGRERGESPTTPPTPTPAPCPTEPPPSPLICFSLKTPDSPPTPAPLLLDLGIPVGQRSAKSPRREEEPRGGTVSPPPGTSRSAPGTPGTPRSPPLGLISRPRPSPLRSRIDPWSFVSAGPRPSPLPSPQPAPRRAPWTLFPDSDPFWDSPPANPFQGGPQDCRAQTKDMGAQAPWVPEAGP

SMILES: CC(=O)N1CCN(C(=O)c2ccc(-c3cnc4[nH]cc(-c5ccc(C(N)=O)cc5)c4c3)cc2)CC1 [US10485800, Example 150]
- IC50: in the range around 550 nM
